These are literature values, as cited in US10925890B2, “Use of dextran sulfate” (TX MEDIC AB, priority 2014, dated 2021).

The data set deals with angiogenesis. The conditions noted are these: cited from earlier work.

With heparin, the “Effect on angiogenesis in vivo” value (Glycobiology 3, 567-573 (1993), Pathophysiology of Haemostasis and Thrombosis 23, 141-149 (1993)) was “inhibited angiogenesis”. In the case of dextran sulfate, for the setting “U.S. Pat. No. 5,135,920”, the Effect on angiogenesis entry is given as “angiostatic”.
